Target: T1, glucocerebrosidase (Gcase) (Homo sapiens, UniProt P04062)
T1 sequence (P04062 40-536): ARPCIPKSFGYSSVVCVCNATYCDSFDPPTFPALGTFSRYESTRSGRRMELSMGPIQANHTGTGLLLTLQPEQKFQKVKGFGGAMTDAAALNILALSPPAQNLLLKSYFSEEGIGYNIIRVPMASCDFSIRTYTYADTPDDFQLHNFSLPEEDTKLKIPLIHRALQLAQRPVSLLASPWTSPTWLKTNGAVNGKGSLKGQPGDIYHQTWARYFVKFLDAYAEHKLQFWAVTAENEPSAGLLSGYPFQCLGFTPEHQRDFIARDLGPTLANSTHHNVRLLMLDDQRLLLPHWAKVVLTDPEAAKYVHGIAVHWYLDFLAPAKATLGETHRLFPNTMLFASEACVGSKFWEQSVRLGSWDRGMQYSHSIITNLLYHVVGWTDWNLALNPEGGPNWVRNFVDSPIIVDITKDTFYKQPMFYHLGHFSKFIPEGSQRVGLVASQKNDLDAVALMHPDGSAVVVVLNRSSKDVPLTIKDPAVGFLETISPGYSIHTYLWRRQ
Experiment: Glucocerebrosidase (Gcase) activation assay, 4-methylumbelliferyl-beta-D-glucopyranoside substrate, with saposin C
Type: biochemical
Conditions: 10 nM GCase, 100 nM saposin C, pH 4.7
Experimental: The ability of exemplary compounds to activate glucocerebrosidase (Gcase) was measured.
A 484 μL aliquot of a 1.0 mg/mL solution of phosphatidylserine (PS) (Sigma P7769) in chloroform was evaporated under a stream of nitrogen for 1 hour. The lipid film was dissolved over 4 minutes of vigorous vortexing in 40 mL of 176 mM K2HPO4/50 mM citric acid (pH 4.7) containing 7.5 μL of triton X-100, resulting in a mixed micellar preparation with a composition of 0.32 mM triton and 0.37 mol % PS. 4-Methylumbelliferyl-beta-D-glucopyranoside (ACROS-337025000) was dissolved in the micellar solution to a final concentration of 2 mM for use as the reaction substrate.
Test compounds were diluted to the desired concentrations with dimethylsulfoxide (DMSO) from 10 mM stocks, and 0.41 μL of the DMSO compound mixture was added to 100 μL of micellar solution containing 10 nM GCase and 100 nM saposin C (Enzo ALX-201-262-C050). Pre-incubation was allowed to occur for 30 minutes at room temperature, after which the reaction was initiated by combining 25 μL of substrate solution with 25 μL of compound/GCase/saposin mixture. The reaction proceeded for 15 minutes at room temperature and was stopped by adding 150 μL of 1M glycine, pH 12.5. The endpoint of the reaction was monitored by measuring fluorescence intensity (excitation: 365 nm; emission: 440 nm) on a SpectraMax i3 instrument (Molecular Devices). Test compounds were screened at 1.0 and 0.1 μM final concentration, and subsequent 8-point dose response curves were obtained using 3-fold dilutions from a maximum final concentration of 5 μM.
For experiments in which the test compound was used at a concentration of 1.0 μM, the symbol “+” indicates less than 30% Gcase activation; the symbol “++” indicates Gcase activation in the range of 30% up to 60%; and the symbol “+++” indicates Gcase activation greater than 60%. For experiments in which the test compound was used at a concentration of 0.1 μM, the symbol “*” indicates less than 10% Gcase activation; the symbol “**” indicates Gcase activation in the range of 10% up to 20%; and the symbol “***” indicates greater than 20% Gcase activation.

SMILES	Percent Gcase Activation 0.1 μM Test Compound	Percent Gcase Activation 1 μM Test Compound
C#Cc1ccc(NC(=O)c2cnn3c(C)cc(C)nc23)nc1 [III-1]	* (less than 10% Gcase activation)	++ (Gcase activation in the range of 30% up to 60%)
C#Cc1ccc(NC(=O)c2cnn3c(C)cc(C)nc23)cn1 [III-2]	* (less than 10% Gcase activation)	+ (less than 30% Gcase activation)
Cc1cc(C)n2ncc(C(=O)Nc3ccc(-c4ccccc4)cc3)c2n1 [III-3]	*** (greater than 20% Gcase activation)	++ (Gcase activation in the range of 30% up to 60%)
COCC#Cc1ccc(NC(=O)c2cnn3c(C)cc(C)nc23)cc1 [III-4]	** (Gcase activation in the range of 10% up to 20%)	+++ (Gcase activation greater than 60%)
Cc1cc(C)n2ncc(C(=O)Nc3ccc(Oc4ccccc4)cc3)c2n1 [III-5]	*** (greater than 20% Gcase activation)	++ (Gcase activation in the range of 30% up to 60%)
Cc1cc(C)n2ncc(C(=O)Nc3ccc(-n4ccnc4)cc3)c2n1 [III-6]	* (less than 10% Gcase activation)	+ (less than 30% Gcase activation)
Cc1cc(C)n2ncc(C(=O)Nc3ccc(-c4nccs4)cc3)c2n1 [III-7]	** (Gcase activation in the range of 10% up to 20%)	+++ (Gcase activation greater than 60%)
C#Cc1ccc(NC(=O)c2cnn3c(C)cc(C)nc23)c(OC)c1 [III-8]	** (Gcase activation in the range of 10% up to 20%)	++ (Gcase activation in the range of 30% up to 60%)
Cc1cc(C)n2ncc(C(=O)Nc3ccc(-c4ccon4)cc3)c2n1 [III-9]	* (less than 10% Gcase activation)	+++ (Gcase activation greater than 60%)
Cc1cc(C)n2ncc(C(=O)Nc3ccc(-c4cocn4)cc3)c2n1 [III-10]	** (Gcase activation in the range of 10% up to 20%)	+++ (Gcase activation greater than 60%)
Cc1cc(C)n2ncc(C(=O)Nc3ccc(-c4ncco4)cc3)c2n1 [III-11]	** (Gcase activation in the range of 10% up to 20%)	+++ (Gcase activation greater than 60%)
Cc1cc(C)n2ncc(C(=O)Nc3cc(-c4ccccc4)on3)c2n1 [III-12]	* (less than 10% Gcase activation)	+ (less than 30% Gcase activation)
C#CC1CCC(NC(=O)c2cnn3c(C)cc(C)nc23)CC1 (stereo not drawn) [III-13]	* (less than 10% Gcase activation)	+ (less than 30% Gcase activation)
C#C[C@H]1CC[C@H](NC(=O)c2cnn3c(C)cc(C)nc23)CC1 [III-14]	* (less than 10% Gcase activation)	+ (less than 30% Gcase activation)
C#C[C@H]1CC[C@@H](NC(=O)c2cnn3c(C)cc(C)nc23)CC1 [III-15]	* (less than 10% Gcase activation)	+ (less than 30% Gcase activation)
Cc1cc(C)n2ncc(C(=O)Nc3ccc(-c4cnsc4)cc3)c2n1 [III-16]	** (Gcase activation in the range of 10% up to 20%)	+++ (Gcase activation greater than 60%)
Cc1cc(C)n2ncc(C(=O)Nc3ccc(-c4cnoc4)cc3)c2n1 [III-17]	* (less than 10% Gcase activation)	+ (less than 30% Gcase activation)
Cc1cc(C)n2ncc(C(=O)Nc3cc(C4(C(F)(F)F)CC4)on3)c2n1 [III-18]	* (less than 10% Gcase activation)	+ (less than 30% Gcase activation)

SMILES	Percent Gcase Activation 0.1 μM Test Compound	Percent Gcase Activation 1 μM Test Compound
Cc1cc(C)n2ncc(C(=O)Nc3ccc(-c4cocn4)nc3)c2n1 [III-19]	* (less than 10% Gcase activation)	+ (less than 30% Gcase activation)
Cc1cc(C)n2ncc(C(=O)Nc3ccc(-c4cccs4)nc3)c2n1 [III-20]	*** (greater than 20% Gcase activation)	+++ (Gcase activation greater than 60%)
Cc1cc(C)n2ncc(C(=O)Nc3ccc(-c4ccncc4)nc3)c2n1 [III-21]	* (less than 10% Gcase activation)	+ (less than 30% Gcase activation)
Cc1cc(C)n2ncc(C(=O)Nc3ccc(-c4ccco4)nc3)c2n1 [III-22]	* (less than 10% Gcase activation)	++ (Gcase activation in the range of 30% up to 60%)
Cc1cc(C)n2ncc(C(=O)Nc3ccc(-c4cnn(C)c4)nc3)c2n1 [III-23]	* (less than 10% Gcase activation)	+ (less than 30% Gcase activation)
Cc1cc(C)n2ncc(CNc3ccc(-c4cocn4)nc3)c2n1 [III-24]	* (less than 10% Gcase activation)	+ (less than 30% Gcase activation)
Cc1ccn2ncc(CNc3ccc(-c4cocn4)cc3)c2n1 [III-25]	* (less than 10% Gcase activation)	+ (less than 30% Gcase activation)
Cc1ccn2ncc(CNc3ccc(-c4ncco4)cc3)c2n1 [III-26]	* (less than 10% Gcase activation)	+ (less than 30% Gcase activation)
Cc1cc(C)n2ncc(C(=O)Nc3ccc(-c4cscn4)cc3)c2n1 [III-27]	** (Gcase activation in the range of 10% up to 20%)	+++ (Gcase activation greater than 60%)
Cc1cc(C)n2ncc(C(=O)Nc3nc4ccccc4[nH]3)c2n1 [III-28]	* (less than 10% Gcase activation)	+ (less than 30% Gcase activation)
COCC#Cc1ccc(NCc2cnn3c(C)cc(C)nc23)cc1 [III-29]	* (less than 10% Gcase activation)	+ (less than 30% Gcase activation)
Cc1cc(C)n2ncc(C(=O)Nc3ccc(-c4ncc[nH]4)cc3)c2n1 [III-30]	* (less than 10% Gcase activation)	+ (less than 30% Gcase activation)
Cc1cc(C)n2ncc(C(=O)Nc3ccc(-c4cc[nH]n4)cc3)c2n1 [III-31]	* (less than 10% Gcase activation)	+ (less than 30% Gcase activation)
CCCCCOc1ccc(NC(=O)c2cnn3c(C)cc(C)nc23)cc1 [III-32]	** (Gcase activation in the range of 10% up to 20%)	+++ (Gcase activation greater than 60%)
C#CCOc1ccc(NC(=O)c2cnn3c(C)cc(C)nc23)cc1 [III-33]	* (less than 10% Gcase activation)	+ (less than 30% Gcase activation)
Cc1cc(C)n2ncc(C(=O)Nc3ccc(CCCC(=O)O)cc3)c2n1 [III-34]	* (less than 10% Gcase activation)	+ (less than 30% Gcase activation)
Cc1cc(C)n2ncc(C(=O)Nc3ccc(C(C)O)cc3)c2n1 (stereo not drawn) [III-35]	* (less than 10% Gcase activation)	+ (less than 30% Gcase activation)
Cc1cc(C)n2ncc(C(=O)Nc3ccc(CCC(=O)O)cc3)c2n1 [III-36]	* (less than 10% Gcase activation)	+ (less than 30% Gcase activation)

— patent US11932645B2, “Substituted pyrazolo[1,5-a]pyrimidines and their use in the treatment of medical disorders” (Bial—R&D Investments, S.A., priority 2014, dated 2024)
